From patent US20110172163A1, “Novel Protease Inhibitors” (QUEENSLAND UNIVERSITY OF TECHNOLOGY, priority 2008, published 2011)
Several values for one entry are separate records, joined by “and”; a condition that tells them apart may be missing. Equal values may be shown once. Read-outs that look alike come from different tables or passages of the source. Bridge positions count the residues as written; N and C are the ends. Peptide text beside a SMILES is read from it. * marks the point of attachment. pNA = O=[N+]([O-])c1ccc(N*)cc1

Tests used:
KLK4 [1] = target: T1, KLK4 (Homo sapiens, UniProt Q9Y5K2); assay: Kinetic studies of para-nitroanilide substrates with KLK4; format: biochemical; parameters: pro-region of PSA (KLK3), replacing the native KLK4 pro-region (only if the E. coli preparation was used) (N, cleaved yes); made in house; conditions: relative to the parent substrate (Bz-FVR-pNA or FVQR-pNA)
Description: Human recombinant KLK4 was expressed in E. coli using a previously described chimeric KLK4 plasmid construct where the native pro-region was replaced with the pro-region of PSA, enabling autoactivation. Protein was expressed as inclusion bodies which were isolated and solubilised as described previously to yield 90% pure KLK4. Protein refolding was performed by dilution into 100 volumes of refolding buffer I (2 M urea, 0.1M NaCl, 5 mM GSH, 0.5 mM GSSG, 10 mM benzamidine, 50 mM tris HCl pH 8.0, 2 mM CaCl2) over 44 hours before further dilution into 3 volumes refolding buffer II (refolding buffer I with 0.5 M urea 0.5 mM GSH, 0.05 mM GSSG, 2 mM CaCl2) over another 24 hours. Dialysis was performed as previously described (with additional 2 mM CaCl2 to reduce aggregation) before concentration using UNO sphere Q (Biorad) eluting with tris buffered saline (pH 7.5)/2 mM CaCl2. […]
Kinetic Studies Active site titration was carried out according to Beynon et al., replacing α1-proteinase inhibitor with soybean trypsin inhibitor. Enzymatic activity assays were performed with 4.9 nM KLK4 and substrate concentrations in the range of 0-600 μM in 300 μL of assay buffer with hydrolysis monitored over 5 minutes as described for the substrate screen. […]

bovine β-trypsin = target: T2, bovine β-trypsin (Bos taurus, UniProt P00760); assay: Inhibitor kinetics: trypsin amidolytic activity; format: biochemical; conditions: substrate BAPNA (0.2 mM)
T2 construct: bovine β-trypsin (20 ng); purchased Sigma Chemicals
T2 sequence (P00760 24-246): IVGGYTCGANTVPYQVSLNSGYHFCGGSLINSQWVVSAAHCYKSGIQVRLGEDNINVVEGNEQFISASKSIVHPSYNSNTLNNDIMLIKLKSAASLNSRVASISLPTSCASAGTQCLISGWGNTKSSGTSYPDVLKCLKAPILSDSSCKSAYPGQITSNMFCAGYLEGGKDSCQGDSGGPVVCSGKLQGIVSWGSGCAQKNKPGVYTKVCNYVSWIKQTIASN
Description: (§1) All enzymes and substrates were obtained from Sigma Chemicals if not otherwise specified. […] The release of pNa moiety was monitored as described above for 7 minutes with each point being the average of three independent triplicate reactions. IC50 was determined using the Prism 5 software suite (GraphPad software Inc.).

[2] = tested on: protease (Streptomyces griseus type XIV); assay: Inhibitor kinetics: Streptomyces griseus type XIV protease; format: biochemical; conditions: substrate L-pNA
Description: as §1

Figure 3 (D) = assay: Figure 3 (D)
Description: Table printed on a drawing sheet, Figure 3 (D)
The patent's description of the figure: FIG. 3. Stability of SFTI variants in contact with prostate cancer cells in vitro. Residual SFTI-FCQR was assayed in tissue culture supernatants from prostate cancer cells treated with a single dose of inhibitor at time =0. Stability was assessed against LNCaP (closed circles), 22RV1 (open circles) and PC3 cells (triangles) for (A) SFTI-FCQR, (B) SFTI-FCQR Asn14 and (C) SFTI-FCQR Lys14 as summarized in (D). Data represented as mean±SEM from three independent experiments in triplicates.
First reader's note: Half-life of residual inhibitor activity in culture supernatants of prostate cancer cell lines, summarising panels (A)-(C).

bovine thrombin = target: T3, bovine thrombin (Bos taurus, UniProt P00735); assay: Inhibitor kinetics: thrombin amidolytic activity; format: biochemical; conditions: substrate Bz-FVR-pNA (0.2 mM); read-out: IC50
T3 construct: purchased Sigma Chemicals
Description: as §1

KLK12 = KLK12 (Homo sapiens, UniProt Q9UKR0); assay: Protein proteolysis: fibrinogen digestion by KLK12; format: biochemical; conditions: at a concentration of 10000 nM
Chain of KLK12 (Q9UKR0 18-248): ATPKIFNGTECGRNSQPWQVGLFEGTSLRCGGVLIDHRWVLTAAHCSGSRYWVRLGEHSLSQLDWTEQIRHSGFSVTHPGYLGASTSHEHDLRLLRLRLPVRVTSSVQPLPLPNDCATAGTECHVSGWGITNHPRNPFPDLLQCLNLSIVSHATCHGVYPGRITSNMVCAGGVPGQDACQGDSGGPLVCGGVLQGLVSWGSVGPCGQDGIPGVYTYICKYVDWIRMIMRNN

KLK14 = KLK14 (Homo sapiens, UniProt Q9P0G3); assay: Protein proteolysis: fibrinogen digestion by KLK14; format: biochemical; conditions: at a concentration of 10000 nM
Chain of KLK14 (Q9P0G3 35-267 limits assumed): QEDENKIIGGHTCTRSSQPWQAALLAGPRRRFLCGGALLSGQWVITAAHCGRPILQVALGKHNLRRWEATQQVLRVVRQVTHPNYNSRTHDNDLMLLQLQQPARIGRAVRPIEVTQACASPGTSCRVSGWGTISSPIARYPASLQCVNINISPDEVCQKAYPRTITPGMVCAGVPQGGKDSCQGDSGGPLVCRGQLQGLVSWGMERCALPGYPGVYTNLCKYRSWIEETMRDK

iKLK14 = target: T4, iKLK14 (Homo sapiens, UniProt Q9P0G3); assay: Inhibitor kinetics: KLK14 amidolytic activity; format: biochemical
T4 construct: made in house
T4 sequence (Q9P0G3 41-267): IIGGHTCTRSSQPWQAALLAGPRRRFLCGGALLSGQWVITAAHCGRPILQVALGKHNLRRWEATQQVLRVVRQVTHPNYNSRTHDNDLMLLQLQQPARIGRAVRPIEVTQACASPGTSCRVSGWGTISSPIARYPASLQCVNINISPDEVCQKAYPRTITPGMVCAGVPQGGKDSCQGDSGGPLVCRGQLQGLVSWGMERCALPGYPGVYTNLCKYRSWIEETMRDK

[3] = Stability of SFTI variants in contact with prostate cancer cells in vitro; format: in vitro ADME; conditions: prostate cancer cell lines in serum containing medium
Description: Cell monolayers of LNCaP, 22Rv1 and PC3 cells were established in RPMI 1640 medium containing 10% fetal calf serum. Each cell line was treated +/−1 μM SFTI-FCQR contained in 4.0 mL RPMI media (as above) with a vehicle control to account for inhibition by intrinsic media factors. 25 μL samples of media were taken at 0, 24, 48, 72, 96 and 120 hrs timepoints. Media samples were boiled at 97° C. for 15 min, centrifuged at 14,000 rpm for 5 min to remove cellular debris and precipitated protein. Residual SFTI-FCQR inhibitory activity in the medium was determined against recombinant KLK4 using FVQR-pNA as a peptide substrate as above using 15ng KLK4 and 30 nmol FVQR-pNA with 2.5 μL and […] of media+/−SFTI-FCQR added from each treatment.

human matriptase = target: T5, human matriptase (Homo sapiens, UniProt Q9Y5Y6); assay: Inhibitor kinetics: matriptase amidolytic activity; format: biochemical; conditions: substrate Bz-FVR-pNA (0.2 mM); read-out: IC50
T5 construct: purchased R&D Systems
T5 sequence (Q9Y5Y6 615-855 limits assumed): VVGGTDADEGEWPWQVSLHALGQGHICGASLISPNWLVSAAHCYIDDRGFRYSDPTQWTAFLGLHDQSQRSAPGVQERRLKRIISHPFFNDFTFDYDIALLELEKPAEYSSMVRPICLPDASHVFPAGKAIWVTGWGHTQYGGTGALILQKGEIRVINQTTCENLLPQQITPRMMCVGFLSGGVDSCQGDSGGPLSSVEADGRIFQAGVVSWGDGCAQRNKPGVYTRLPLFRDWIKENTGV
Description: as §1

bovine α-chymotrypsin = target: T6, bovine α-chymotrypsin (Bos taurus, UniProt P00766); assay: Inhibitor kinetics: α-chymotrypsin amidolytic activity; format: biochemical; conditions: substrate W-pNA (0.2 mM); read-out: IC50
T6 construct: purchased Sigma Chemicals
Description: as §1

KLK4 [4] = target: T1, KLK4; assay: Inhibitor kinetics: KLK4 amidolytic activity with peptide-pNA substrates; format: biochemical; parameters: pro-region of PSA (KLK3), replacing the native KLK4 pro-region (N, cleaved yes); made in house
Description: (§2) Human recombinant KLK4 was expressed in E. coli using a previously described chimeric KLK4 plasmid construct where the native pro-region was replaced with the pro-region of PSA, enabling autoactivation. Protein was expressed as inclusion bodies which were isolated and solubilised as described previously to yield 90% pure KLK4. Protein refolding was performed by dilution into 100 volumes of refolding buffer I (2 M urea, 0.1M NaCl, 5 mM GSH, 0.5 mM GSSG, 10 mM benzamidine, 50 mM tris HCl pH 8.0, 2 mM CaCl2) over 44 hours before further dilution into 3 volumes refolding buffer II (refolding buffer I with 0.5 M urea 0.5 mM GSH, 0.05 mM GSSG, 2 mM CaCl2) over another 24 hours. Dialysis was performed as previously described (with additional 2 mM CaCl2 to reduce aggregation) before concentration using UNO sphere Q (Biorad) eluting with tris buffered saline (pH 7.5)/2 mM CaCl2. Subsequently, the material was purified to apparent homogeneity (according to coomassie blue stained SDS PAGE) by gel filtration using Sephacryl S-200 (GE Health Care) pre-equilibrated with 50 mM Tris-HCl pH 7.5, 20 mM NaCl and 2 mM CaCl2.
All enzymes and substrates were obtained from Sigma Chemicals if not otherwise specified. Bacterially expressed human KLK4 (37 ng), bovine β-trypsin (20 ng), bovine thrombin (20 ng), bovine α-chymotrypsin (0.5 μg), protease (0.5 μg; Streptomyces griseus type XIV), bovine plasminogen (0.5 μg), and human matriptase (30 ng; R&D Systems) were incubated with various concentrations of inhibitors in 200 μL assay buffer for 10 minutes prior to initiation by the addition of 100 μL of 0.3 mM of peptide-pNA substrates (FVQR-pNA: KLK4; BAPNA: trypsin, (Streptomyces griseus Type XIV Protease and bovine plasma plasminogen); Bz-Phe-Val-Arg-pNA: thrombin and matriptase; Trp-pNA: α-chymotrypsin; Leu-pNA: (Streptomyces griseus Type XIV Protease and bovine plasma plasminogen). The release of pNa moiety was monitored as described above for 7 minutes with each point being the average of three independent triplicate reactions. IC50 was determined using the Prism 5 software suite (GraphPad software Inc.).

[5] = comparison value, source not given; cited from earlier work
[6] = substrate: CC(C)[C@H](NC(=O)[C@H](Cc1ccccc1)NC(=O)c1ccccc1)C(=O)N[C@@H](CCCNC(=N)N)C(=O)Nc1ccc([N+](=O)[O-])cc1; assay: Kinetic studies of para-nitroanilide substrates with KLK4; format: biochemical, human; conditions: other: para-Nitroanilide substrate
Description: as §2
(§3) Kinetic Studies Active site titration was carried out according to Beynon et al., replacing α1-proteinase inhibitor with soybean trypsin inhibitor. Enzymatic activity assays were performed with 4.9 nM KLK4 and substrate concentrations in the range of 0-600 μM in 300 μL of assay buffer with hydrolysis monitored over 5 minutes as described for the substrate screen. The data was fitted to the Michaelis-Menten equation by […] analysis using the Prism 5 software suite (GraphPad Software Inc.).

[7] = substrate: CC(=O)N[C@@H](Cc1ccccc1)C(=O)N[C@H](C(=O)N[C@@H](CCCNC(=N)N)C(=O)Nc1ccc([N+](=O)[O-])cc1)C(C)C; assay: as above; format: biochemical, human; conditions: other: para-Nitroanilide substrate
Description: as §2, §3

[8] = substrate: CSCC[C@H](NC(=O)[C@@H](NC(=O)[C@@H](N)Cc1ccccc1)C(C)C)C(=O)N[C@@H](CCCNC(=N)N)C(=O)Nc1ccc([N+](=O)[O-])cc1; assay: as above; format: biochemical, human; conditions: other: para-Nitroanilide substrate
Description: as §2, §3

CC(=O)N[C@@H](Cc1ccccc1)C(=O)N[C@H](C(=O)N[C@@H](CCCNC(=N)N)C(=O)Nc1ccc([N+](=O)[O-])cc1)C(C)C [Ac-FVR-pNA] (Ac-Phe-Val-Arg-pNA)
reduction of kcat (KLK4 [1]): 47%

CC[C@H](C)[C@@H]1NC(=O)[C@@H]2CCCN2C(=O)[C@@H]2CCCN2C(=O)[C@H]([C@@H](C)CC)NC(=O)[C@H](CO)NC(=O)[C@H](CCCNC(=N)N)NC(=O)[C@H](CCC(N)=O)NC(=O)[C@@H]2CSSC[C@H](NC1=O)C(=O)N[C@@H](Cc1ccccc1)C(=O)N1CCC[C@H]1C(=O)N[C@@H](CC(N)=O)C(=O)NCC(=O)N[C@@H](Cc1ccccc1)C(=O)N2 [SFTI-FCQR Asn14] (cyclo(GFCQRSIPPICFPN); disulfide 3-11)
IC50 (bovine β-trypsin; read-out: IC50): 2.58 ± 0.508 µM | IC50 [2]: > 10 µM | Half-life (Figure 3 (D)): 70 h | IC50 (bovine thrombin): > 10 µM | inhibition of KLK12 digestion of fibrinogen (KLK12): did not inhibit | inhibition of KLK14 digestion of fibrinogen (KLK14): did not inhibit | IC50 (iKLK14): 0.251 ± 0.00665 µM | half life of inhibition (in words) [3]: in the order of days | IC50 (human matriptase): > 10 µM | IC50 (bovine α-chymotrypsin): > 10 µM | IC50 (KLK4 [4]): 0.063 ± 0.002 nM

CC[C@H](C)[C@@H]1NC(=O)[C@@H]2CCCN2C(=O)[C@@H]2CCCN2C(=O)[C@H]([C@@H](C)CC)NC(=O)[C@H](CO)NC(=O)[C@H](CCCNC(=N)N)NC(=O)[C@H](CCC(N)=O)NC(=O)[C@@H]2CSSC[C@H](NC1=O)C(=O)N[C@@H](Cc1ccccc1)C(=O)N1CCC[C@H]1C(=O)N[C@@H](CCCCN)C(=O)NCC(=O)N[C@@H](Cc1ccccc1)C(=O)N2 [SFTI-FCQR Lys14] (cyclo(GFCQRSIPPICFPK); disulfide 3-11)
IC50 (bovine β-trypsin): Inhibitor degraded | IC50 [2]: > 10 µM | Half-life (Figure 3 (D)): 9 h and 10 h | IC50 (bovine thrombin): > 10 µM | half life of inhibition (in words) [3]: curtailed half life | IC50 (human matriptase): > 10 µM | IC50 (bovine α-chymotrypsin): > 10 µM | IC50 against KLK4 compared with SFTI-FCQR Asn14 (KLK4 [4]; substrate FVQR-pNA): nearly three orders of magnitude higher | IC50 (KLK4 [4]; substrate FVQR-pNA (0.2 mM), read-out: IC50): 98.9 ± 4.09 nM

CC(C)c1nc(CN(C)C(=O)N[C@H](C(=O)N[C@@H](Cc2ccccc2)C[C@H](O)[C@H](Cc2ccccc2)NC(=O)OCc2cncs2)C(C)C)cs1 [ritonavir]
half life [5]: 3.8 h

B1: KLK4 (Homo sapiens) (protein)
chain: IINGEDCSPHSQPWQAALVMENELFCSGVLVHPQWVLSAAHCFQNSYTIGLGLHSLEADQEPGSQMVEASLSVRHPEYNRPLLANDLMLIKLDESVSESDTIRSISIASQCPTAGNSCLVSGWGLLANGRMPTVLQCVNVSVVSEEVCSKLYDPLYHPSMFCAGGGHDQKDSCNGDSGGPLICNGYLQGLVSFGKAPCGQVGVPGVYTNLCKFTEWIEKTVQAS
notes: pro-region of PSA (KLK3), replacing the native KLK4 pro-region (only if the E. coli preparation was used) (N, cleaved yes); made in house
Km [6]: 42.5 ± 5.9 µM | kcat [6]: 0.57 ± 0.031 s⁻¹ | kcat/Km [6]: 13400 ± 1500 M⁻¹ s⁻¹ | Km [7]: 194.9 ± 41.4 µM | kcat [7]: 0.3 ± 0.032 s⁻¹ | kcat/Km [7]: 1540 ± 240 M⁻¹ s⁻¹ | Km [8]: 74.7 ± 10.3 µM
